Experimental data as given in patent EP0938471B1, “THE PREPARATION AND USE OF ORTHO-SULFONAMIDO ARYL HYDROXAMIC ACIDS AS MATRIX METALLOPROTEINASE AND TACE INHIBITORS” (priority 1996, dated 1998).
Like-named read-outs stand apart in the source and are kept apart here.

Tests used:
[1] = target: T1, MMP-9 (Homo sapiens, UniProt P14780); assay: In vivo MMP inhibition (enzyme in implanted dialysis tubing); set-up: species or system rat (Sprague-Dawley) or mouse (CD-1)
Experimental: A 2 cm piece of dialysis tubing (molecular weight cut-off 12-14,000, 10 mm flat width) containing matrix metalloproteinase enzyme (stromelysin, collagenase or gelatinase in 0.5 mL of buffer) is implanted either ip or sc (in the back) of a rat (Sprague-Dawley, 150-200g) or mouse (CD-1,25-50g) under anesthesia. Drugs are administered PO, IP, SC or IV through a canula in the jugular vein. Drugs are administered in a dose volume of 0.1 to 0.25 mL/animal. Contents of the dialysis tubing is collected and enzyme activity assayed. Enzyme reaction rates for each dialysis tube are calculated. Tubes from at least 3 different animals are used to calculate the mean± sem. Statistical significance (p<0.05) of vehicle-treated animals versus drug-treated animals is determined by analysis of variance. (Agents and Actions 21: 331, 1987).

[2] = target: TACE (Homo sapiens, UniProt P78536); assay: TACE inhibition (fluorescent peptidyl substrate); type: biochemical
[3] = target: T2, MMP-1 (Homo sapiens, UniProt P03956); assay: MMP-1 inhibition (thiopeptide or fluorescent peptide substrate assay); type: biochemical; settings: for IC50: read-out: MMP-1 IC50
T2 sequence (P03956 100-469): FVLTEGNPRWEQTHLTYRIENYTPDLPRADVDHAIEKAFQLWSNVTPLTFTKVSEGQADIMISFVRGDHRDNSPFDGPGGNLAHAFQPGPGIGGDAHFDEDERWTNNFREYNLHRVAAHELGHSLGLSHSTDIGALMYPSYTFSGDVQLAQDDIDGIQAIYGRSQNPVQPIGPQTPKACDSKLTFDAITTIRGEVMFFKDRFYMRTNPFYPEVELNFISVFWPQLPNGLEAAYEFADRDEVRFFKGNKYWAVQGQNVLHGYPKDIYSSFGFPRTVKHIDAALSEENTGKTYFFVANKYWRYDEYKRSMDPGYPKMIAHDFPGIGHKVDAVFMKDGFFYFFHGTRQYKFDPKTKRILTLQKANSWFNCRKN

[4] = target: T1, MMP-9; assay: MMP-9 inhibition (thiopeptide or fluorescent peptide substrate assay); type: biochemical; settings: for IC50: read-out: MMP-9 IC50
[5] = target: MMP-13 (Homo sapiens, UniProt P45452); assay: MMP-13 inhibition (thiopeptide or fluorescent peptide substrate assay); type: biochemical
[6] = test system: cartilage; assay: Cartilage degradation in the rat (cartilage-sponge implant); type: in vivo, rat (Lewis strain); settings: average daily dose 50 mg/kg, intraperitoneal osmotic minipump; for % Inhibition of Cartilage Collagen Loss: * = p<0.05 vs vehicle-treated rats
Experimental: Twenty mg slices of cartilage are obtained from the knee of freshly slaughtered cattle. Discs of cellulose sponge, 6 mm in diameter, are cut and a 2 mm hole put in the center of the sponge. 100 µl of a sterile suspension containing 1 mg of heat-killed Mycobacterium tuberculosis is applied to the sponge. After air-drying overnight, the sponges are autoclaved and a cartilage slice is placed in the hole cut in the sponge disc. Under sterile conditions, the cartilage-sponge disc is placed subcutaneously in the back of an anesthetized rat (Lewis strain, 200 to 250 g). The incision is closed with staples and the rat allowed to recover from anesthesia. Approximately 5 days after sponge implantation, osmotic minipumps (Alza Corp., Palo Alto, CA), containing either investigational compound or vehicle were implanted intraperitoneally in the anesthetized rat under sterile conditions After 19 days, the rats are euthanized by asphyxiation with CO2 and the granulomas containing the implanted sponge excised from the surrounding tissue.
The weight of the piece of cartilage recovered from the sponge was recorded and the collagen content of the cartilage was determined. The mean of the cartilage weights and collagen content was determined for the vehicle and drug-treated groups. The inhibition of cartilage weight and collagen content loss produced by the compounds compared with vehicle-treated rats was determined. Statistical significance (p< 0.05) of vehicle-treated animals versus drug-treated animals was determined by analysis of variance.
Reference: Bishop J., Greenham AK., Lewis EJ. A novel in vivo model for the study of cartilage degradation. J. Pharmacol. Toxicol. Methods, 30:19-25, 1993.

[7] = 100 mg/kg, ip (intraperitoneal)

Chain of TACE (P78536 215-824): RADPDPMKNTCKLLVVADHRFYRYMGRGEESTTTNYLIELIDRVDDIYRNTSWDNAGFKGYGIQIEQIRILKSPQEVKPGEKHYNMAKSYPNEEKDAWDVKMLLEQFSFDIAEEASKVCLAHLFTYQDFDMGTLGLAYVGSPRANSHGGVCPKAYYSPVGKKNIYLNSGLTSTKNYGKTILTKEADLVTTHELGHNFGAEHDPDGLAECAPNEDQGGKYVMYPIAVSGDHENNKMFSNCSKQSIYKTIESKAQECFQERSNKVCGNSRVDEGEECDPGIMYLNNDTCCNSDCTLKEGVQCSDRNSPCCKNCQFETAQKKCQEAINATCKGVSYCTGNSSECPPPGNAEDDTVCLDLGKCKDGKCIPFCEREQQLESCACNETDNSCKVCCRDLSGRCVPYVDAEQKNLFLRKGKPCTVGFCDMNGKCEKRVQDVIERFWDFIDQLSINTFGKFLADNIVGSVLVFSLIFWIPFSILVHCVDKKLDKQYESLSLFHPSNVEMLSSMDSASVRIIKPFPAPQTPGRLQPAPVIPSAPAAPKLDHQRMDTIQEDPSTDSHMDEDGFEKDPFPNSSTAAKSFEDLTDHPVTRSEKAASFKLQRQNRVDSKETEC
T1 sequence (P14780 94-707): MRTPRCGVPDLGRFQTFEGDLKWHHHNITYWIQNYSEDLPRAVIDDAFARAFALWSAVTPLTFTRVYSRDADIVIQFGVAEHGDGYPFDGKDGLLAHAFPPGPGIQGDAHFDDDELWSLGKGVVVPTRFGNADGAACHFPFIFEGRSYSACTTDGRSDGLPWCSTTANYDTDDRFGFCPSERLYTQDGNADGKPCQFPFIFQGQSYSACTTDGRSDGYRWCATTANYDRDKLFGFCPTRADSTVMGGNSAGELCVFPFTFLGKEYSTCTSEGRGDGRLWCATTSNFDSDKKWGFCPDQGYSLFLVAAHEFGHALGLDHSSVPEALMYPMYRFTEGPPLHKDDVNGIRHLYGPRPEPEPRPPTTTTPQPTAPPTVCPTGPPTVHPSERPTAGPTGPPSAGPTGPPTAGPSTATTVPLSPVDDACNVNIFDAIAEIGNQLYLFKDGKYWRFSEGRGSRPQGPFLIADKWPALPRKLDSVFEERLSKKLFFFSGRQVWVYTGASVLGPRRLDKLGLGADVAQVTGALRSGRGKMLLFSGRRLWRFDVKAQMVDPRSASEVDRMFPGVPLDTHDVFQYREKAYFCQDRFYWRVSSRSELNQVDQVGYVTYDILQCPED

| Compound | in-vivo MMP % inhibition vs. MMP-9 [1, 7] | IC50 ([2]; read-out: TACE IC50) | IC50 [3] | IC50 [4] | IC50 ([5]; read-out: MMP-13 IC50) | also measured |
| --- | --- | --- | --- | --- | --- | --- |
| COc1ccc(S(=O)(=O)N(Cc2ccccc2)c2c(C)cc(Br)cc2C(=O)NO)cc1 [Example 25, 2-[Benzyl-(4-methoxy-benzenesulfonyl)-amino]-5-bromo-N-hydroxy-3-methyl-benzamide] | 32%(100), ip | > 1 µM |  |  |  |  |
| COc1ccc(S(=O)(=O)N(Cc2ccccc2)c2c(OCc3ccccc3)cccc2C(=O)NO)cc1 [Example 34, 2-[Benzyl-(4-methoxy-benzenesulfonyl)-amino]-3-benzyloxy-N-hydroxy-benzamide] | 31.6(100), ip % | > 1 µM | 0.281 µM | 0.028 µM | 0.069 µM |  |
| COc1ccc(S(=O)(=O)N(Cc2cccnc2)c2c(C)cccc2C(=O)NO)cc1 [Example 61, N-Hydroxy-2-[(4-methoxy-benzenesulfonyl)-pyridin-3-ylmethyl-amino]-3-methyl-benzamide] |  | 0.289 µM |  |  |  | in-vivo MMP % inhibition vs. MMP-9 ([1]; 20 mg/kg, po (oral)): 46(20), po %; in-vivo MMP % inhibition vs. MMP-9 ([1]; 50 mg/kg, po (oral)): 59(50), po % |
| COc1ccc(S(=O)(=O)N(Cc2cccnc2)c2c(C)cccc2C(=O)NO)cc1 [Example 83, N-Hydroxy-2-[(4-methoxy-benzenesulfonyl)-pyridin-3-ylmethyl-amino]-3-methyl-benzamide] |  |  |  |  |  | % Inhibition of Cartilage Weight Loss [6]: 44.6%; % Inhibition of Cartilage Collagen Loss [6]: 51.2* % |
| COc1ccc(S(=O)(=O)N(C)c2c(CN3CCN(C)CC3)cc(Br)cc2C(=O)NO)cc1 [Example 313, 5-Bromo-N-hydroxy-2-[(4-methoxy-benzenesulfonyl)-methyl-amino]-3-(4-methyl-piperazin-1-ylmethyl)-benzamide] |  |  | 0.18 µM | 0.0014 µM |  | IC50 [2]: 0.026 µM; % Inhibition of Cartilage Weight Loss [6]: 45.5%; % Inhibition of Cartilage Collagen Loss [6]: 28.0* % |
| Cc1cccc(C(=O)NO)c1N(Cc1cccnc1)S(=O)(=O)c1ccc(-c2ccc3c(c2)OCO3)cc1 [Example 415, 2-[(4-Benzo[1,3]dioxol-5-yl-benzenesulfonyl)-pyridin-3-ylmethyl-amino]-N-hydroxy-3-methyl-benzamide] |  |  |  |  |  | MMP-1 % inhibition ([3]; concentration given as (10), unit not given): 37%(10); inhibition at 1 µM ([4]; read-out: MMP-9 % inhibition, footnote: 1µM): 43%; IC50 [5]: 0.026 µM; inhibition at 1 µM ([2]; at 1µM concentration): 9% |
| N-Hydroxy-2-[(4-methoxy-benzenesulfonyl)-pyridin-3-ylmethyl-amino]-5-methyl-3-thiophen-2-yl-benzamide [Example 145] |  | 0.158 µM | 0.055 µM | 0.007 µM | 0.003 µM |  |

Further lines, with some results ahead:

| in-vivo MMP % inhibition vs. MMP-9 [1, 7] | IC50 ([2]; read-out: TACE IC50) | IC50 [3] | IC50 [4] | IC50 ([5]; read-out: MMP-13 IC50) | Compound | also measured |
| --- | --- | --- | --- | --- | --- | --- |
|  |  |  | 0.024 µM | 0.02 µM | COc1ccc(S(=O)(=O)N(Cc2cccnc2)c2c(C)cc(Br)cc2C(=O)NO)cc1 [Example 91, 5-Bromo-N-hydroxy-2-[(4-methoxy-benzenesulfonyl)-pyridin-3-ylmethyl-amino]-3-methyl-benzamide] | in-vivo MMP % inhibition vs. MMP-9 ([1]; 100 mg/kg, po (oral)): 55(100), po % |
| 28.3(100), ip % | 0.154 µM | 0.114 µM | 0.01 µM | 0.01 µM | CCCN(c1c(C)cc(C)cc1C(=O)NO)S(=O)(=O)c1ccc(OC)cc1 [Example 117, N-Hydroxy-2-[(4-methoxy-benzenesulfonyl)-propyl-amino]-3,5-dimethyl-benzamide] |  |
